{"source": "patent US6406529B1", "about": "“Method of reducing dentin sensitivity and compositions therefor” (MCG Research Institute, priority 1998, dated 2002)", "origin": "cited, not measured here", "settings": "3% w/v applied to dentin; in vitro and in vivo", "data": [{"compound": "O=C([O-])C(=O)O.[K+]", "note": "[monopotassium-monohydrogen oxalate]", "values": [{"measurement": "Hydraulic conductance of dentin", "result": "reduced"}]}]}
